Common to all, as to assay: MicroScale Thermophoresis
(In MST a laser heats a spot of the sample, and binding alters the fluorescence response.)

Assay [1] deals with Glutamate receptor 2 (GRIA2) (Homo sapiens, UniProt P42262). The class given is binding.
Another assay addresses T1, Menin (Homo sapiens, UniProt O00255).
T1 sequence (O00255 1-610): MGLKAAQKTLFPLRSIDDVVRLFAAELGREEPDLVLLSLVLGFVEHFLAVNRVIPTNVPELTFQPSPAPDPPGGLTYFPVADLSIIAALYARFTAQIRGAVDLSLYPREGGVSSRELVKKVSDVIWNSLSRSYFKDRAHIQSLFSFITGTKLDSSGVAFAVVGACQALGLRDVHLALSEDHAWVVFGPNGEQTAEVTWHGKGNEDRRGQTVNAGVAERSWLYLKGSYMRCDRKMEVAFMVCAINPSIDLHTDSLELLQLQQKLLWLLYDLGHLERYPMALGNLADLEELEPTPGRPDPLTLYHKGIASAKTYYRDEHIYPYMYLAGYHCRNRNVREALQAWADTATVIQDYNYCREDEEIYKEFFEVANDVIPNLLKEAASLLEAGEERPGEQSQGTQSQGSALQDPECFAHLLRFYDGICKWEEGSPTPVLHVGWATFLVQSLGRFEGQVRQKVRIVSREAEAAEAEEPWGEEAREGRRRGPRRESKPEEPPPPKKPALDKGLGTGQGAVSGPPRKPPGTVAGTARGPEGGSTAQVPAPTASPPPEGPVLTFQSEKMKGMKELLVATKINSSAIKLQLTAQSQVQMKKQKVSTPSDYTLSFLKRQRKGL
The assay is classed as binding.

Assay [2] deals with T2, Fatty acid-binding protein 4 (FABP4) (Homo sapiens, UniProt P15090).
T2 sequence (P15090 2-132): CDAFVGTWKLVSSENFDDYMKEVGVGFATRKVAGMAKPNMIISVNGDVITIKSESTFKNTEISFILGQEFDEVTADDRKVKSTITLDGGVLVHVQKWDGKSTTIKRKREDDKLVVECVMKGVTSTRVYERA

The target of assay [3] is Nicotinamide/nicotinic acid mononucleotide adenylyltransferase 1 (NMNAT1) (Homo sapiens, UniProt Q9HAN9). The class given is binding.
For assay [4], the target named is Hematopoietic prostaglandin D synthase (HPGDS) (Homo sapiens, UniProt O60760). The assay is classed as binding.

Each structure is given as a SMILES string. Bounds are passed on as bounds.

A word on the Kd: it is the constant that tells how readily two partners part at equilibrium.

Sequence of Nicotinamide/nicotinic acid mononucleotide adenylyltransferase 1 (NMNAT1) (Q9HAN9 whole entry): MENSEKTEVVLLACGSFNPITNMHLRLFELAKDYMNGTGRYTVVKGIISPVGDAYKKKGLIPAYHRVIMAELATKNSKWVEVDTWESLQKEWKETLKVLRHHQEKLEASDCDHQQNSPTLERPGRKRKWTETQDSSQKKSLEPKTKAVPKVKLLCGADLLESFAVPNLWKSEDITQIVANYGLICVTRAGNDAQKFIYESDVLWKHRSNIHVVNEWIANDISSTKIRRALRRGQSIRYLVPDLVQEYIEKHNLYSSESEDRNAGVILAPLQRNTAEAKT
Sequence of Hematopoietic prostaglandin D synthase (HPGDS) (O60760 whole entry): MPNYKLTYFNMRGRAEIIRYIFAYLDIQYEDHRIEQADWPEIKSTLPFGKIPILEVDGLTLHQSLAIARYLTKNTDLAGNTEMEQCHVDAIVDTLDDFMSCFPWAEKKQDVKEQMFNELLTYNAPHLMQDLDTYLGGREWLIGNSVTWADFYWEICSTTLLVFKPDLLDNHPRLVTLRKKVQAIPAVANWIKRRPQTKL
Sequence of Glutamate receptor 2 (GRIA2) (P42262 25-543 limits assumed): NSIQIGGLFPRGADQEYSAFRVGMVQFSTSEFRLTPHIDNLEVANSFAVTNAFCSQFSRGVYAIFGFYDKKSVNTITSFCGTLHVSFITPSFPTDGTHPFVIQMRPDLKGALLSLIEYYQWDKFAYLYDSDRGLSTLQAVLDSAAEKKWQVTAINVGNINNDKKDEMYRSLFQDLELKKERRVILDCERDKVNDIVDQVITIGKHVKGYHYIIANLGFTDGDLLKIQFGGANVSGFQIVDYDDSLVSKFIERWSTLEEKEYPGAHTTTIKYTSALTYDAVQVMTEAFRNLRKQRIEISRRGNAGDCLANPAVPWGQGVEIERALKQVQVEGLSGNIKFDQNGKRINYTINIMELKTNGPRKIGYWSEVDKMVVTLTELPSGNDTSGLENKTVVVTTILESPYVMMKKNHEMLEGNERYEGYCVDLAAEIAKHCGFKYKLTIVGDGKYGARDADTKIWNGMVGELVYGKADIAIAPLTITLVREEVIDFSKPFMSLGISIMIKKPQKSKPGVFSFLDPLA

In the case of `C[S+]([O-])c1ccc(-c2nc(-c3ccncc3)c(-c3ccc(F)cc3)[nH]2)cc1` (centres unmarked) [SB203580], the Kd is above 500 µM in assay [1]; above 500 µM at Menin; above 500 µM in assay [2]; above 500 µM in assay [3]; 30.9 ± 4.54 µM in assay [4].
